Measurements as given in ChEMBL document CHEMBL4725370, “Discovery of Proteolysis-Targeting Chimera Molecules that Selectively Degrade the IRAK3 Pseudokinase” (J Med Chem, 2020).

Tests used:
[1] = biological target: T1, Interleukin-1 receptor-associated kinase 3 (Homo sapiens, UniProt Q9Y616); test: Inhibition of kinase tracer 236 binding to recombinant human full-length GST-tagged IRAK3 expressed in insect cells by Lanthascreen Eu kinase binding assay
T1 sequence (Q9Y616 whole entry): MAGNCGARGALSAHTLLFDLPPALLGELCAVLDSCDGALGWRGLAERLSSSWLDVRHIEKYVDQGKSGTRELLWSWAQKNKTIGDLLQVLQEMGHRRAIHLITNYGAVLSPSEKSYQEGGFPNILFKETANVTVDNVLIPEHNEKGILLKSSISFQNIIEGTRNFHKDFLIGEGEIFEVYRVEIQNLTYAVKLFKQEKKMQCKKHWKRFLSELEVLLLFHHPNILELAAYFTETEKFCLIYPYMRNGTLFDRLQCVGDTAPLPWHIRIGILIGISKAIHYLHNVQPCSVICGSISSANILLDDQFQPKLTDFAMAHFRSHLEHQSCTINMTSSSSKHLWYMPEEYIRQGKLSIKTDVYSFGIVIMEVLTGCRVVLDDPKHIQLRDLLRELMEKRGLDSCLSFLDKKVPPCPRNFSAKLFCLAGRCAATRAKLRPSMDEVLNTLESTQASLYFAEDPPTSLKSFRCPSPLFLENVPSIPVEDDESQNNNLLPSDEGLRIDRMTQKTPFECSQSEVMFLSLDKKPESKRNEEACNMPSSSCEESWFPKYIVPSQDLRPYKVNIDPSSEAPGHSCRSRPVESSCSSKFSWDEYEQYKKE

[2] = biological target: T2, von Hippel-Lindau disease tumor suppressor/Interleukin-1 receptor-associated kinase 3 (Homo sapiens) (UniProt Q9Y616+P40337); test: Protac activity at VHL/IRAK3 in LPS-induced human THP1 cells assessed as induction of IRAK3 degradation at 10 uM by Western blot analysis relative to control; format: cell-based; settings: THP-1
[3] = Octanol/buffer partition coefficient, log D of the compound at pH 7.4 by shake-flask method; format: physicochemical
[4] = biological target: T2, von Hippel-Lindau disease tumor suppressor/Interleukin-1 receptor-associated kinase 3 (Homo sapiens); test: Protac activity at VHL/IRAK3 in LPS-induced human THP1 cells assessed as induction of IRAK3 degradation at 1 uM by Western blot analysis relative to control; format: cell-based; settings: THP-1
[5] = biological target: T3, Interleukin-1 receptor-associated kinase 4 (Homo sapiens, UniProt Q9NWZ3); test: Inhibition of recombinant human full-length His-tagged IRAK4 expressed in baculovirus expression system using 5-FAM-IPTSPITTTYFFFKKK-COOH as substrate measured after 240 mins by mobility shift assay
T3 sequence (Q9NWZ3 whole entry): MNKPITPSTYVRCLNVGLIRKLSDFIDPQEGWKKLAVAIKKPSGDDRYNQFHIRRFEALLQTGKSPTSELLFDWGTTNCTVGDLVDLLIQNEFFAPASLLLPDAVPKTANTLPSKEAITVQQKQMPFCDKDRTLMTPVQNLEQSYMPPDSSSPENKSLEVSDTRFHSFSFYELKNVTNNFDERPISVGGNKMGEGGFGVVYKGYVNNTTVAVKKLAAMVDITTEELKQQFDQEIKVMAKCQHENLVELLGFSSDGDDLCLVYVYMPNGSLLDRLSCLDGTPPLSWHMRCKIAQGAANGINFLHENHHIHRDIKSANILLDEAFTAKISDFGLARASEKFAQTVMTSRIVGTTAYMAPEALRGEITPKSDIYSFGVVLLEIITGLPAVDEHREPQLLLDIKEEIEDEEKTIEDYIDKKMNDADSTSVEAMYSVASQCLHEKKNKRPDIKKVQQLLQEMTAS

[6] = biological target: T4, Protein cereblon/Interleukin-1 receptor-associated kinase 3 (Homo sapiens, UniProt Q9Y616+Q96SW2); test: Protac activity at CRBN/IRAK3 in LPS-induced human THP1 cells assessed as induction of IRAK3 degradation at 10 uM by Western blot analysis relative to control; format: cell-based; settings: THP-1
Target sequence in this assay (Q96SW2 whole entry, looked up, one chain of several): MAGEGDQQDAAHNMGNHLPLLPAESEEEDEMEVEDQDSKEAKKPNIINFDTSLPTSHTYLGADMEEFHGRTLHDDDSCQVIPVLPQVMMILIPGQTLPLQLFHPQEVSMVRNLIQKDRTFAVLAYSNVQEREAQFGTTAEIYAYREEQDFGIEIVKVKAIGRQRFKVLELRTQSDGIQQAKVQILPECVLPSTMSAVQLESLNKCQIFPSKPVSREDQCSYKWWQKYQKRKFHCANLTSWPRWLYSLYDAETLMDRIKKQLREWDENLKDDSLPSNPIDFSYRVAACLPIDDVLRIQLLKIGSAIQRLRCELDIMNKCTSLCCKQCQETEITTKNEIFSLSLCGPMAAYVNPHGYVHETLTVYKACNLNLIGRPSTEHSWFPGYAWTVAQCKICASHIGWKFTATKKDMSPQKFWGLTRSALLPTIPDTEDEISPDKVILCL

[7] = biological target: T4, Protein cereblon/Interleukin-1 receptor-associated kinase 3; test: Protac activity at CRBN/IRAK3 in LPS-induced human THP1 cells assessed as induction of IRAK3 degradation at 1 uM by Western blot analysis relative to control; format: cell-based; settings: THP-1
Target sequence in this assay (Q96SW2 whole entry, looked up, one chain of several): as above

[8] = biological target: T4, Protein cereblon/Interleukin-1 receptor-associated kinase 3; test: Protac activity at CRBN/IRAK3 in LPS-induced human THP1 cells assessed as induction of IRAK3 degradation after 16 hrs by Western blot analysis relative to control; format: cell-based; settings: THP-1
Target sequence in this assay (Q96SW2 whole entry, looked up, one chain of several): as above

[9] = biological target: Protein cereblon (Homo sapiens, UniProt Q96SW2); test: Inhibition of CRBN (unknown origin)
[10] = biological target: T4, Protein cereblon/Interleukin-1 receptor-associated kinase 3; test: Protac activity at CRBN/IRAK3 in LPS-induced human THP1 cells assessed as induction of IRAK3 degradation after 16 hrs by Western blot analysis; format: cell-based; settings: thp-1
Target sequence in this assay (Q96SW2 whole entry, one chain of several): as the sequence (Q96SW2 whole entry, looked up, one chain of several) above

[11] = biological target: Interleukin-1 receptor-associated kinase 1 (Homo sapiens, UniProt P51617); test: Inhibition of recombinant human N-terminal GST-tagged IRAK1 (194 to 712 residues) expressed in baculovirus expression system using 5-FAM-KKKVSRSGLYRSPSMPENLNRPR-COOH as substrate measured after 240 mins by mobility shift assay
Interleukin-1 receptor-associated kinase 1, sequence (P51617 whole entry, the tested form may be a part): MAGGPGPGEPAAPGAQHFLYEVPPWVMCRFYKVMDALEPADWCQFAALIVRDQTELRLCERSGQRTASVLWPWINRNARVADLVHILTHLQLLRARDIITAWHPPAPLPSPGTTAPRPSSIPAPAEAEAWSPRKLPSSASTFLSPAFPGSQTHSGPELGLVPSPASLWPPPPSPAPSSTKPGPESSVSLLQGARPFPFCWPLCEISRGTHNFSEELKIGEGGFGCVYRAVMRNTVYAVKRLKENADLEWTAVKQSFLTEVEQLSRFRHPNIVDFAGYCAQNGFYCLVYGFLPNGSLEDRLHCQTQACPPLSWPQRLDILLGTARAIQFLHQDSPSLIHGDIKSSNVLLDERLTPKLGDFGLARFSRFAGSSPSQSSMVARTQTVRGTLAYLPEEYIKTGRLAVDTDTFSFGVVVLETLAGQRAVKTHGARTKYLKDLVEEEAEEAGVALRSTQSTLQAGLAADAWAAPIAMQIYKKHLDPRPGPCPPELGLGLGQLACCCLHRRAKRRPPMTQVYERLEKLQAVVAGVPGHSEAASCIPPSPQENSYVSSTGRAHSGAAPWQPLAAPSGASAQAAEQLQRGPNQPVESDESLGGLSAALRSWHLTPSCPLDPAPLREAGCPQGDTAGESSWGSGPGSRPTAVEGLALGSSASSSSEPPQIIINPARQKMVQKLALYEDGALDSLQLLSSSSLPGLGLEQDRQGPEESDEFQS

T2 sequence (P40337 whole entry, looked up, one chain of several): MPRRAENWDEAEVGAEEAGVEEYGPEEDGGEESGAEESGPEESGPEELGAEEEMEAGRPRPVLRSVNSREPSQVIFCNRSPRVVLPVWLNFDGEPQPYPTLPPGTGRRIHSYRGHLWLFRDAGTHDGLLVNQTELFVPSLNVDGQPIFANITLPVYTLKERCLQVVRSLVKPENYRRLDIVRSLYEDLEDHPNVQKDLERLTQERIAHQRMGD
Protein cereblon, sequence (Q96SW2 whole entry): as the sequence (Q96SW2 whole entry, looked up, one chain of several) above

Row | SMILES | IC50 [1] [nM] | Activity [2] [%] | logD [3] | Activity [4] [%] | IC50 [5] [nM] | Activity [6] [%] | Activity [7] [%] | Emax [8] [%] | IC50 [9] [nM] | DC50 [10] [nM] | IC50 [11] [nM]
1 | CC(=O)N1CCN([C@H]2CC[C@H](Nc3ncnn4ccc(C(C)C)c34)CC2)CC1 | 31 |  |  |  |  |  |  |  |  |  | 
2 | Cc1ncsc1-c1ccc(CNC(=O)[C@@H]2C[C@@H](O)CN2C(=O)[C@@H](NC(=O)COCCOCCNC(=O)CCC(=O)N2CCN([C@H]3CC[C@@H](Nc4ncnn5ccc(C(C)C)c45)CC3)CC2)C(C)(C)C)cc1 | 24 | 20 | 3.3 | 0 | > 10000 |  |  |  |  |  | 
3 | CC(C)c1ccn2ncnc(N[C@H]3CC[C@@H](N4CCN(C(=O)CCC(=O)NCCCCNc5cccc6c5C(=O)N(C5CCC(=O)NC5=O)C6=O)CC4)CC3)c12 (stereo partly specified) | 13 |  | 2.9 |  | > 1000 | 0 | 0 |  |  |  | 
4 | Cc1ncsc1-c1ccc(CNC(=O)[C@@H]2C[C@@H](O)CN2C(=O)[C@@H](NC(=O)COCCOCCOCCOCC(=O)N2CCN([C@H]3CC[C@@H](Nc4ncnn5ccc(C(C)C)c45)CC3)CC2)C(C)(C)C)cc1 | 21 | 62 | 3.2 | 25 | > 10000 |  |  |  |  |  | 
5 | Cc1ncsc1-c1ccc(CNC(=O)[C@@H]2C[C@@H](O)CN2C(=O)[C@@H](NC(=O)COCCOCCOCCOCCOCC(=O)N2CCN([C@H]3CC[C@@H](Nc4ncnn5ccc(C(C)C)c45)CC3)CC2)C(C)(C)C)cc1 | 51 | 67 |  | 21 |  |  |  |  |  |  | 
6 | CC(C)c1ccn2ncnc(N[C@H]3CC[C@@H](N4CCN(C(=O)CCOCCOCCOCCOCCNc5cccc6c5C(=O)N(C5CCC(=O)NC5=O)C6=O)CC4)CC3)c12 (stereo partly specified) | 50 |  | 2.2 |  | > 10000 | 27 | 48 |  |  |  | 
7 | Cc1ncsc1-c1ccc(CNC(=O)[C@@H]2C[C@@H](O)CN2C(=O)[C@@H](NC(=O)COCCOCCOCCOCCNC(=O)CCC(=O)N2CCN([C@H]3CC[C@@H](Nc4ncnn5ccc(C(C)C)c45)CC3)CC2)C(C)(C)C)cc1 | 19 | 0 | 3 | 0 | > 1000 |  |  |  |  |  | 
8 | CC(C)c1ccn2ncnc(N[C@H]3CC[C@@H](N4CCN(C(=O)CCC(=O)NCCOCCOCCOCCNc5cccc6c5C(=O)N(C5CCC(=O)NC5=O)C6=O)CC4)CC3)c12 (stereo partly specified) | 21 |  | 2.1 |  | > 1000 | 34 | 42 |  |  |  | 
9 | CC(C)c1ccn2ncnc(N[C@H]3CC[C@@H](N4CCN(C(=O)CCC(=O)NCCOCCOCCNc5cccc6c5C(=O)N(C5CCC(=O)NC5=O)C6=O)CC4)CC3)c12 (stereo partly specified) | 10 |  | 2.3 |  | 4900 | 13 | 17 |  |  |  | 
10 | Cc1ncsc1-c1ccc(CNC(=O)[C@@H]2C[C@@H](O)CN2C(=O)[C@@H](NC(=O)CCCNC(=O)CCC(=O)N2CCN([C@H]3CC[C@@H](Nc4ncnn5ccc(C(C)C)c45)CC3)CC2)C(C)(C)C)cc1 | 15 | 0 | 3.7 | 0 | > 1000 |  |  |  |  |  | 
11 | Cc1ncsc1-c1ccc(CNC(=O)[C@@H]2C[C@@H](O)CN2C(=O)[C@@H](NC(=O)CCCCCCNC(=O)CCC(=O)N2CCN([C@H]3CC[C@@H](Nc4ncnn5ccc(C(C)C)c45)CC3)CC2)C(C)(C)C)cc1 | 6 | 0 | > 3 | 0 | > 1000 |  |  |  |  |  | 
12 | Cc1ncsc1-c1ccc(CNC(=O)[C@@H]2C[C@@H](O)CN2C(=O)[C@@H](NC(=O)COCCOCCOCCOCCOCCOCC(=O)N2CCN([C@H]3CC[C@@H](Nc4ncnn5ccc(C(C)C)c45)CC3)CC2)C(C)(C)C)cc1 | 33 | 43 | 2.8 | 20 | > 10000 |  |  |  |  |  | 
13 | CC(C)c1ccn2ncnc(N[C@H]3CC[C@@H](N4CCN(C(=O)CCOCCOCCOCCOCCOCCNc5cccc6c5C(=O)N(C5CCC(=O)NC5=O)C6=O)CC4)CC3)c12 (stereo partly specified) | 33 |  | 2.1 |  | > 10000 | 49 | 78 |  |  |  | 
14 | Cc1ncsc1-c1ccc(CNC(=O)[C@@H]2C[C@@H](O)CN2C(=O)[C@@H](NC(=O)COCCOCCOCCNC(=O)CCC(=O)N2CCN([C@H]3CC[C@@H](Nc4ncnn5ccc(C(C)C)c45)CC3)CC2)C(C)(C)C)cc1 | 25 | 0 | 3.1 | 0 | > 1000 |  |  |  |  |  | 
15 | CC(C)c1ccn2ncnc(N[C@H]3CC[C@@H](N4CCN(C(=O)CCC(=O)N5CCC(CN6CCN(c7ccc8c(c7)C(=O)N(C7CCC(=O)NC7=O)C8=O)CC6)CC5)CC4)CC3)c12 (stereo partly specified) | 6 |  | 3.1 |  | 5600 |  |  | 74 | 1200 | 52 | 5600
16 | CC(C)c1ccn2ncnc(N[C@H]3CC[C@@H](N4CCN(C(=O)CCC(=O)NCCOCCOCCOCCOCCNc5cccc6c5C(=O)N(C5CCC(=O)NC5=O)C6=O)CC4)CC3)c12 (stereo partly specified) | 22 |  | 2 |  | > 1000 | 55 | 85 |  |  |  | 
17 | CC(C)c1ccn2ncnc(N[C@H]3CC[C@@H](N4CCN(C(=O)CCC(=O)NCCCCCCNc5cccc6c5C(=O)N(C5CCC(=O)NC5=O)C6=O)CC4)CC3)c12 (stereo partly specified) | 21 |  | 3.7 |  | 2600 | 0 | 0 |  |  |  | 
18 | CC(C)c1ccn2ncnc(N[C@H]3CC[C@@H](N4CCN(C(=O)CCOCCOCCOCCNc5cccc6c5C(=O)N(C5CCC(=O)NC5=O)C6=O)CC4)CC3)c12 (stereo partly specified) | 34 |  | 2.3 |  | 7800 | 21 | 24 |  |  |  | 
